In patent US5416090A, “Method of treating inflammation” (priority 1992, dated 1995):

Tests used:
[1] = test system: substance P induced paw swelling; test: Substance P induced acute paw inflammation; assay type: in vivo, rat (Lewis); conditions: pre-treated with 3 mg/kg
Procedure: In one such model, the acute paw inflammation model, rats were treated with test compounds one hour prior to plantar injection of a 50 μl volume of a phlogistic. Animals were sacrificed and paw weights were determined at a prescribed time interval following the plantar injections. When 1% carrageenan was used as the phlogistic, the time interval between injection and sacrifice was 3 hours. When serotonin (5-hydroxytryptamine (5-HT)) was used, as the phlogistic agent the time interval was one hour. When substance P was used, the time interval was 30 minutes. The acute paw inflammation model is described in more detail in Example 3.
Male Lewis rats (Charles River or Harlan Sprague Dawley) weighing 180 to 250 g were used in all acute inflammatory studies. Animals were maintained on a 12:12 hour light:dark cycle and were allowed ad lib access for food (Purina lab chow) and water. Experimental groups consisted of 5 or 6 rats.
Acute paw swelling was induced by the intraplantar injection of phlogistic agents into the left hind paw, with the uninjected right hind paw serving as the comparative control. […]

serum prolactin = test: Serum prolactin levels in rats; assay type: in vivo, rat (Lewis); conditions: FIG. 11, 0.3, 3 and 30 mg/kg, 1 hour post-treatment
Procedure: A further mechanistic study wherein rat serum prolactin levels were quantitated 1 hour post-treatment with varying doses of D-1-isopropyl-6-n-propyl-8β-methylthiomethyl ergoline is summarized in FIG. 11. […] A time course/dose response study of D-1-isopropyl-6-n-propyl-8β-methylthio-methyl ergoline effects on murine serum prolactin levels is presented in FIG. 12. […] There is however a disparity between the suppression of prolactin and anti-inflammatory activities of the ergolines with regard to the dose response profiles. Serum prolactin levels are much more sensitive to D-1-isopropyl-6-n-propyl-8β-methylthiomethyl ergoline (maximal suppression ~≤0.1 mg/kg) than are the anti-inflammatory effects 3-10 mg/kg, See FIG. 5).
Both Balb/C mice (male, approximately 20 g, Charles Rivers) and Lewis rats (male, approximately 200 g, Charles River or Harlan Sprague Dawley) were used in neuroendocrine studies. Animals were maintained on a 12:12 hour light:dark cycle and were allowed ad lib access for food (Purina lab chow) and water. Experimental groups consisted of 6 to 8 animals.
After dosing with test compounds, animals were sacrificed by decapitation at 1, 3, 8 or 24 hour intervals. […] Serum prolactin was determined by radioimmunoassay. Serum corticosterone levels were determined with a kit designed for such determinations and obtained from ICN.

[2] = test system: delayed type hypersensitivity (DTH) in adrenalectomized mice; test: DTH response in adrenalectomized (ADX) mice; assay type: in vivo, mouse (Balb/c); conditions: FIG. 10B
Description: CMC= carboxymethylcellulose vehicle control; NEG=negative control for DTH; POS=positive control for DTH.
Dopamine agonists are known to elevate circulating glucocorticoid levels, via activation of the hypothalamo-pituitary-adrenal axis. […] Since glucocorticoids are potential endogenous anti-inflammatory substances, this action is one potential mechanism for the anti-inflammatory effect of the ergolines. However, in subsequent inflammation studies, the anti-inflammatory effects of D-1-isopropyl-6-n-propyl-8β-methylthiomethyl ergoline were retained in mice lacking an adrenal gland and therefore devoid of the increase in circulating corticosterone. (FIG. 10B)
Male Balb/c mice (Charles River) weighing 20 to 25 g were used in all DTH studies. When adrenalectomized studies were carried out, sham surgery and adrenalectomized mice were obtained from the vendor. Animals were maintained on a 12:12 hour light:dark cycle. […]
A DTH response was assessed by measuring the degree of rear foot pad swelling induced by picryl chloride. […] On day 3, mice were anesthetized with methoxyflurane, and the baseline rear foot pad thickness was measured with a micrometer (Mitutoyo) in μ, and was recorded in duplicate. […] Twenty-four hours later, the mice were sacrificed by CO2 asphyxiation and each rear foot pad was again measured in duplicate, and any evidence of foot pad swelling was calculated. […]

[3] = Toxicity study / survival in mice; assay type: in vivo, mouse; conditions: FIG. 4; survival curve
Procedure: FIG. 4 Effect of 2 or 4 days treatment with compound 1 on a murine delayed type hypersensitivity (DTH) response (panel A) and toxicity study with compound 1 in mice (panel B). NEG=negative control for DTH; POS=positive control for DTH; CMC=carboxymethylcellulose (vehicle).
The activity of ergoline compounds was also evaluated in a murine delayed-type hypersensitivity (DTH) assay. The DTH assay was performed in substantial accordance with the method set forth in Example 1. Briefly, mice were sensitized by topical administration of picryl chloride on day 1 of the assay. On day 4 paw size was determined and recorded and the paw was then challenged with picryl chloride. The challenged paw was remeasured on day 5 to quantitate the DTH response via the increase in paw size. Results of the effects of compound D-1-isopropyl-6-n-propyl-8β-methylthiomethyl ergoline in the murine DTH model are presented in FIG. 4. FIG. 4, Panel A illustrates the efficacy of compound D-1-isopropyl-6-n-propyl-8β-methylthiomethyl ergoline in reducing paw swelling. […] FIG. 4, Panel B is a survival curve of mice treated with varying dosages of D-1-isopropyl-6-n-propyl-8β-methylthiomethyl ergoline.

[4] = listed as D-1-isopropyl-6-n-propyl-8β-methylthiomethyl ergoline

SMILES: CCCN1C[C@H](CSC)C[C@@H]2c3cccc4c3c(cn4C(C)C)C[C@H]21 [Compound 1, D-1-isopropyl-6-n-propyl-8β-methylthiomethyl ergoline]
- increase in paw weight after substance P ([1]; Substance P 0.01 mg/ml, untreated 174 ±18 mg): 38 ± 11 mg
- reduction of substance P induced increase in paw weight ([1]; p<0.05): 49%
- serum prolactin levels (serum prolactin; [4]): dramatically reduced serum prolactin levels
- serum prolactin levels (serum prolactin; listed as compound 1): Suppression of serum prolactin levels
- anti-inflammatory effect in mice lacking an adrenal gland [2, 4]: retained
- anti-inflammatory effect in mice lacking an adrenal gland ([2]; listed as compound 1): inhibitory effect
- efficacious DTH dosages relative to toxic level [3]: well within the toxic level of the compound
